Measured values from patent US12370159B2, “Compositions and methods of use of beta-hydroxy-beta-methylbutyrate (HMB) and probiotics” (priority 2016, dated 2025).

Tests used:
[1] = HMB kinetics before and after two weeks of BC30 probiotic supplementation (Example 2)
[2] = healthy young or old adults; cited from earlier work
[3] = after HMB is fed; cited from earlier work

## Calcium β-Hydroxy-β-Methylbutyrate [CaHMB]
[1]
  Probiotic-induced increase in peak plasma HMB levels, CaHMB compared with HMB-FA: larger

## CC(C)(O)CC(=O)O [HMB, β-hydroxy-β-methylbutyric acid]
[2]
  Side effects: no side effects
[3]
  Loss of HMB to urine: 20-50%
